Entries after “also recorded” stand apart in the source; their conditions may differ.
Tests used:
HDAC11 = biological target: T1, HDAC11 (Homo sapiens, UniProt Q96DB2); test: HDAC selectivity panel: HDAC11; format: biochemical
T1 sequence (Q96DB2 1-347): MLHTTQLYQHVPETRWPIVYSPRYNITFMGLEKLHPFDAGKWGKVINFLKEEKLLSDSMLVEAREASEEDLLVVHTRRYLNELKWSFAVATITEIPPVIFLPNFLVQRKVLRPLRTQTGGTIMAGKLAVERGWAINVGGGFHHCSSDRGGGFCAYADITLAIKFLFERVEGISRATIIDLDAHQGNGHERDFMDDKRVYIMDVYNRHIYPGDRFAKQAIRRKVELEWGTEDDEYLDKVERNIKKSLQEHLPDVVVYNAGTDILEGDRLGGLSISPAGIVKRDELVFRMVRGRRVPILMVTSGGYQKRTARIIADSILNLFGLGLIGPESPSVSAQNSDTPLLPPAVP

[1] = system: acetyl-α-tubulin in SH-SY5Y neuroblastoma cells; test: Western blot of acetylated alpha-tubulin in SH-SY5Y neuroblastoma cells; format: cell-based; conditions: 1 μM and 10 μM, 24 hours
Procedure: SH-SY5Y neuroblastoma cells were seeded at 1,000,000 cells/well of three 6-well plates and incubated for 24 hours. Cells were treated with 2 control and experimental HDAC6 inhibitors at 1 μM and 10 μM for 24-hours. Following treatment, cells were lysed, and proteins extracted for western blot. Proteins were separated by gel electrophoresis and transferred to nitrocellulose membranes. Membranes were blocked and probed with primary Abs overnight.
acetyl-α-tubulin (Lys40)(D20G3); Cell Signaling Technologies, #5335S
GAPDH; Millipore Sigma, #MAB374
Membranes were probed with secondary Abs for 1 hour and then the blots were imaged using the iBright 1500 (ThermoFisher)

[2] = ALS mouse model: clinical signs & mortality; format: in vivo; conditions: G4 30 mg/kg (50 mg/kg from day 34) p.o. QD; SOD1-G93A mice
Procedure: Male mice and age-matched control mice were procured. All animals were quarantine for 7 days and acclimatized for one day prior to experiment initiation. During this period, the animals were observed daily for clinical signs.
Mice were weighed and randomized into different groups and age matched control groups were kept as such. Test compound I-8 was freshly formulated and administered to the respective animals of each group as per body weight. Animals in G1 and G2 were administered with vehicle. G3 and G4 group animals were dosed with compound I-8 at the dose of 15 mg/kg and 30 mg/kg respectively, per orally; Q.D. G4 animals were administered 30 mg/kg dose until day 34 and 50 mg/kg from day 35 onwards.
Cage-side observations were made to detect any changes and general activity of the animals. After dose administration, all the animals were observed carefully for treatment related clinical signs, including morbidity and mortality.

[3] = system: B6SJL.SOD1-G93A transgenic mouse model of amyotrophic lateral sclerosis; test: ALS mouse model: rotarod test; format: in vivo, mice
Procedure: The Rotarod test was used for motor coordination assessment in mice. Animals were accustomed to the rotarod at 10 rpm for 300 s followed by training for 2 days at accelerated rpm (4-40 for 300 s) with 15 minutes inter trial interval. On the day of the test, animals were subjected to rotarod test at 4-40 rpm for 300 s with 15 minutes inter trial interval. During the training and test, the latency to fall off the rod was recorded. A total of 3 trials were recorded, data was averaged and analyzed.
Note: Behavioral tests were performed once in two weeks, i.e. at week 10, 12, 14 and 16.

[4] = system: B6SJL.SOD1-G93A transgenic mouse model of amyotrophic lateral sclerosis; test: Pre-clinical ALS mouse model efficacy: motor behavior; format: in vivo, mice; conditions: both doses (G3 and G4), week 10 until week 16
Procedure: Effect of test compound I-8 in Cyagen, male B6SJL.SOD1-G93A 9-week-old transgenic mouse model of amyotrophic lateral sclerosis
Compound I-8 effect was evaluated in Cyagen, Male B6SJL.SOD1-G93A 9-week-old mice, an animal model of amyotrophic lateral sclerosis.

[5] = Tg2576 study: bioanalysis; format: in vivo, mice
Excerpt: At termination, animals were given a final dose, and under mild anesthesia, blood was collected retro-orbitally and separated plasma were utilized for bio analysis (G3) and ex vivo analysis. Then animals were euthanized under CO2 asphyxiation and brain tissue was collected and divided into two equal hemispheres. One hemisphere was fixed in 10% NBF for immunohistochemistry and from another hemisphere, dissected cortex and hippocampus was utilized for ex vivo analysis.
At the end of the experiment, animals in group G3 were dosed with the test compound, blood was collected under mild anesthesia, and separated plasma was utilized for drug bioanalysis by LC-MS/MS.

[6] = Mice PK studies of compound I-16; format: in vivo

Brain Conc (ng/mL) ([5]; G3 Tg2576 mice, end of experiment, 9 hr post dose)	plasma concentration time course ([5]; G3 mice bled at different time points after the water maze test)	concentration at 2 h ([5]; male, mouse, plasma, oral, G3 Tg2576 mice, end of experiment, 2 hr post dose, read-out: Plasma Concentrations)	concentration at 4 h ([5]; male, mouse, plasma, oral, G3 Tg2576 mice, end of experiment, 4 hr post dose, read-out: Plasma Concentrations)	concentration at 6 h ([5]; male, mouse, plasma, oral, G3 Tg2576 mice, end of experiment, 6 hr post dose, read-out: Plasma Concentrations)	concentration at 8 h ([5]; male, mouse, plasma, oral, G3 Tg2576 mice, end of experiment, 8 hr post dose, read-out: Plasma Concentrations)	oral and brain uptake [6]	Compound	IC50 (HDAC11)	acetylation of α-tubulin (Western blot) [1]	mortality [2]	Rotarod Test latency to fall ([3]; G3 15 mg/kg p.o. QD, Week 10)	Rotarod Test latency to fall ([3]; G3 15 mg/kg p.o. QD, Week 12)	Rotarod Test latency to fall ([3]; G3 15 mg/kg p.o. QD, Week 14)	Rotarod Test latency to fall ([3]; G3 15 mg/kg p.o. QD, Week 16)	Rotarod Test latency to fall ([3]; G4 30 mg/kg (50 mg/kg from day 34) p.o. QD, Week 10)	Rotarod Test latency to fall ([3]; G4 30 mg/kg (50 mg/kg from day 34) p.o. QD, Week 12)	Rotarod Test latency to fall ([3]; G4 30 mg/kg (50 mg/kg from day 34) p.o. QD, Week 14)	Rotarod Test latency to fall ([3]; G4 30 mg/kg (50 mg/kg from day 34) p.o. QD, Week 16)	motor behavior compared to disease control group [4]
							CC1CN(Cc2ccc(Nc3nccc(-c4ccc(C(=O)NO)cc4)n3)cc2F)CCO1 (racemic) [Compound I-8, 4-(2-((3-fluoro-4-((2-methylmorpholino)methyl)phenyl)amino)pyrimidin-4-yl)-N-hydroxybenzamide]	416 nM	induce acetylation of α-tubulin in SH-SY5Y neuroblastoma cells in a dose-dependent manner; also recorded: induces acetylation α-tubulin	two mortalities	137.59 ± 15.62 s	119.19 ± 18.07 s	88.63 ± 10.57 s	34.04 ± 12.74 s	140 ± 13.47 s	120.58 ± 13.17 s	86 ± 16.17 s	39.79 ± 20.43 s	Improvement was observed in motor behavior
No Peak	time course dependent decrease	106 ± 13.8 ng/mL	32.6 ± 4.75 ng/mL	19 ± 4.16 ng/mL	12.1 ± 2.1 ng/mL	promising oral, and brain up take	C[C@@H]1CN(Cc2ccc(Nc3nccc(-c4ccc(C(=O)NO)cc4)n3)cc2F)CCO1 [Compound I-16, (R)-4-(2-((3-fluoro-4-((2-methylmorpholino)methyl)phenyl)amino)pyrimidin-4-yl)-N-hydroxybenzamide]												

— patent US20260109690A1, “HDAC6 INHIBITORS AND METHOD OF THEIR USE” (Baerenkraft Therapeutics, LLC., priority 2024, published 2026)
